The values below come from patent US7351861B2 (priority 2002, dated 2008).

The test system of this test is luciferase light signal from pIB29EL (yopE-luxAB). The experiment in a line: microbe, parasite or virus in culture. In kind it is cell-based, Yersinia pseudotuberculosis. The following applies: for inhibition at 5 µM: read-out: Inhibition (%) of the luciferase light signal, 5 μM; for inhibition at 10 µM: read-out: Inhibition (%) of the luciferase light signal, 10 μM; for inhibition at 20 µM: read-out: Inhibition (%) of the luciferase light signal, 20 μM; for inhibition at 50 µM: read-out: Inhibition (%) of the luciferase light signal, 50 μM; for inhibition at 100 µM: read-out: Inhibition (%) of the luciferase light signal, 100 μM; for IC50: read-out: IC50 (concentration resulting in 50% reduction of luciferase light emission).

Setting [1] is: 10 μM, strain pIB29EL, Table 2C.
Where [2] appears, read: 20 μM, strain pIB29EL, Table 2C.
Setting [3] is: 50 μM, strain pIB29EL, Table 2C.
Where [4] appears, read: 100 μM, strain pIB29EL, Table 2C.
[5] abbreviates: Yersinia pseudotuberculosis, strain pIB29EL, Table 2C.

Usually inhibition stands for the relative decrease from the control value, in per cent.

Like-named read-outs stand apart in the source and are kept apart here.

On to `CC(=O)Oc1ccc(Cl)cc1C(=O)Nc1ccc([N+](=O)[O-])cc1Cl` [Compound 56], for which the “Inhibition (%) of the luciferase light signal” value (shortened to “Inhibition (%)”) came to 77% (5 μM, strain pIB29EL, Table 2C); 90% under setting [1]; 91% under setting [2]; 91% under setting [3]; 90% under setting [4].

With `O=C(Nc1cccc(Cl)c1)c1cc(Cl)ccc1NS(=O)(=O)c1cccc2nsnc12` [Compound 57], the “Inhibition (%)” value runs as follows: (5 μM, strain pIB29EL, Table 2C) 0%; under setting [1], 7%; under setting [2], 26%; under setting [3], 49%; under setting [4], 55%.

With `CC(=O)Oc1c(I)cc(I)cc1C(=O)Nc1ccccc1` [Compound 18], the “Inhibition (%)” value is, setting by setting: (10 μM, pIB29EL, Table 2A) 11%; (20 μM, pIB29EL, Table 2A) 51%; (50 μM, pIB29EL, Table 2A) 70%; (100 μM, pIB29EL, Table 2A) 62%.

For the compound `O=C(Nc1ccc(Cl)cc1)c1cc(I)cc(I)c1O` [Compound 25], under setting [5], the inhibition at 5 µM amounted to 80%, the inhibition at 10 µM came to 92%, the inhibition at 20 µM came to 93% and the inhibition at 50 µM turned out to be 100%. Further, the inhibition at 100 µM under setting [5] was determined as 98%.

Turning to `CC(=O)Oc1c(Br)cc(Br)cc1C(=O)Nc1ccccc1F` [Compound 19], the “Inhibition (%)” value reads like this: (10 μM, pIB29EL, Table 2A) 0%; (20 μM, pIB29EL, Table 2A) 0%; (50 μM, pIB29EL, Table 2A) 45%; (100 μM, pIB29EL, Table 2A) 70%.

For `O=C(Nc1cc(Cl)ccc1F)c1cc(I)cc(I)c1O` [Compound 48], the “Inhibition (%)” value by setting is: (5 μM, strain pIB29EL, Table 2C) 36%; under setting [1], 75%; under setting [2], 88%; under setting [3], 89%; under setting [4], 88%.

With `O=C(Nc1ccc(SC(F)(F)F)cc1)c1cccc(Cl)c1O` [Compound 54], the “Inhibition (%)” value turned out to be 41% (5 μM, strain pIB29EL, Table 2C); 63% under setting [1]; 86% under setting [2]; 89% under setting [3]; 87% under setting [4].

As to `CC(=O)Oc1cc(C)ccc1C(=O)Nc1ccccc1F` [Compound 30], under setting [5], the inhibition at 5 µM amounted to 14%, the inhibition at 10 µM was determined as 15%, the inhibition at 20 µM was 35% and the inhibition at 50 µM was 63%. For the same compound, the inhibition at 100 µM under setting [5] turned out to be 83%.

In the case of `O=C(Nc1ccccc1F)c1cc(Br)cc(Br)c1O` [Compound 27], under setting [5], the inhibition at 5 µM amounted to 9%, the inhibition at 10 µM came out at 3%, the inhibition at 20 µM is 1% and the inhibition at 50 µM is 13%. Besides, the inhibition at 100 µM under setting [5] is 20%.

On to `CC(=O)Oc1ccc(I)cc1C(=O)Nc1ccc(Br)cc1` [Compound 51], for which the “Inhibition (%)” value is 91% (5 μM, strain pIB29EL, Table 2C); 87% under setting [1]; 89% under setting [2]; 87% under setting [3]; 85% under setting [4].

`C=CCc1cccc(/C=N/NC(=O)c2ccc([N+](=O)[O-])cc2)c1O` [Compound 10]: the “Inhibition (%)” value is reported as 30% (10 μM, pIB29EL, Table 2A); 49% (20 μM, pIB29EL, Table 2A); 56% (50 μM, pIB29EL, Table 2A); 57% (100 μM, pIB29EL, Table 2A).

With `CC(=O)Oc1ccc(I)cc1C(=O)Nc1ccc(Cl)cc1` [Compound 16], the “Inhibition (%)” value reads like this: (5 μM (first of two columns headed 5), pIB29EL, Table 2B) 65%; (5 μM (second of two columns headed 5), pIB29EL, Table 2B) 97%; (10 μM, pIB29EL, Table 2B) 98%; (20 μM, pIB29EL, Table 2B) 97%.

Take `O=C(Nc1ccc(Cl)cc1)c1ccccc1NS(=O)(=O)c1cccc2nsnc12` [Compound 58]: the “Inhibition (%)” value is, setting by setting: (5 μM, strain pIB29EL, Table 2C) 4%; under setting [1], 5%; under setting [2], 10%; under setting [3], 11%; under setting [4], 15%.

`CC(=O)Oc1c(I)cc(I)cc1C(=O)Nc1ccc(SC(F)(F)F)cc1` [Compound 33]: under setting [5], the inhibition at 5 µM was 71%, the inhibition at 10 µM came to 70%, the inhibition at 20 µM is 68% and the inhibition at 50 µM came out at 69%. Also, the inhibition at 100 µM under setting [5] was 71%.

Turning to `C/C(=N\NC(=O)c1ccc([N+](=O)[O-])cc1)c1cc(Br)cc(Br)c1O` [Compound 21], under setting [5], the inhibition at 10 µM worked out at 21%, the inhibition at 20 µM came out at 18%, the inhibition at 50 µM was determined as 44% and the inhibition at 100 µM was 57%.

`O=C(N/N=C/c1c(O)ccc2ccccc12)c1ccccc1` [Compound 9]: the “Inhibition (%)” value reads like this: (10 μM, pIB29EL, Table 2A) 9%; (20 μM, pIB29EL, Table 2A) 21%; (50 μM, pIB29EL, Table 2A) 41%; (100 μM, pIB29EL, Table 2A) 49%.

Consider `NC(=O)C(=O)N/N=C/c1cc(Br)cc(Br)c1O` [Compound 61], for which the “Inhibition (%)” value is 7% (5 μM, strain pIB29EL, Table 2C); 9% under setting [1]; 19% under setting [2]; 32% under setting [3]; 55% under setting [4].

Regarding `O=C(Nc1ccc(Br)cc1)c1cc(I)ccc1O` [Compound 50], the “Inhibition (%)” value by setting is: (5 μM, strain pIB29EL, Table 2C) 57%; under setting [1], 69%; under setting [2], 62%; under setting [3], 72%; under setting [4], 70%.

On to `CC(C)(C)c1ccc(NC(=O)c2c(O)c(Cl)cc(Cl)c2Cl)cc1` [Compound 32], for which, under setting [5], the inhibition at 5 µM is 14%, the inhibition at 10 µM came out at 23%, the inhibition at 20 µM came to 37% and the inhibition at 50 µM was determined as 42%. Moreover, under setting [5], the inhibition at 100 µM was 46%.

With `CC(C)(C)c1ccc(NC(=O)c2cc(I)cc(I)c2O)cc1` [Compound 29], under setting [5], the inhibition at 5 µM was determined as 19%, the inhibition at 10 µM turned out to be 18%, the inhibition at 20 µM is 21% and the inhibition at 50 µM stood at 30%. For the same compound, the inhibition at 100 µM under setting [5] amounted to 28%.

As to `O=C(Nc1ccc(Cl)c(Cl)c1)c1ccccc1NS(=O)(=O)c1cccc2nsnc12` [Compound 59], the “Inhibition (%)” value (5 μM, strain pIB29EL, Table 2C) was determined as 0%; the “Inhibition (%)” value under setting [1] was found to be 0%; the “Inhibition (%)” value under setting [2] turned out to be 0%; the “Inhibition (%)” value under setting [3] is given as 7%; the “Inhibition (%)” value under setting [4] was found to be 10%.

Regarding `O=C(Nc1ccc(Cl)cc1)c1cc(I)ccc1O` [Compound 23], the “Inhibition (%)” value by setting is: (5 μM, strain pIB29EL, Table 2C) 70%; under setting [1], 75%; under setting [2], 83%; under setting [3], 80%; under setting [4], 78%.

As to Polymixin B [reference compound], the “Inhibition of light-emission (in words)” value was “dose-dependent inhibition of light-emission” and the IC50 amounted to 0.15 µM.

`O=C(N/N=C/c1cc(Br)cc(Br)c1O)c1cccnc1` [Compound 7]: the “Inhibition (%)” value by setting is: (10 μM, pIB29EL, Table 2A) 25%; (20 μM, pIB29EL, Table 2A) 20%; (50 μM, pIB29EL, Table 2A) 68%; (100 μM, pIB29EL, Table 2A) 93%.

In the case of `CC(=O)Oc1c(I)cc(I)cc1C(=O)Nc1cc(Cl)ccc1F` [Compound 49], the “Inhibition (%)” value by setting is: (5 μM, strain pIB29EL, Table 2C) 24%; under setting [1], 34%; under setting [2], 63%; under setting [3], 89%; under setting [4], 88%.

In the case of `CC1(C)S[C@@H]2[C@H](NC(=O)C(C(=O)O)c3ccccc3)C(=O)N2[C@H]1C(=O)O` (stereo partly shown) [Carbenicillin, reference compound], the IC50 (Yersinia pseudotuberculosis) came to 15 µM. In addition, where the note is “known antibiotics, pIB29EL”, the “Inhibition of light-emission (in words)” value was “dose-dependent inhibition of light-emission”.

For `O=C(Nc1ccccc1)c1cc(I)cc(I)c1O` [Compound 31], the “Inhibition (%)” value by setting is: (5 μM, strain pIB29EL, Table 2C) 10%; under setting [1], 30%; under setting [2], 60%; under setting [3], 77%; under setting [4], 98%.

Take `CC(=O)Oc1c(Cl)cc(Cl)c(Cl)c1C(=O)Nc1ccc(SC(F)(F)F)cc1` [Compound 47]: the “Inhibition (%)” value (5 μM, strain pIB29EL, Table 2C) is 55%; the “Inhibition (%)” value under setting [1] was found to be 61%; the “Inhibition (%)” value under setting [2] came to 73%; the “Inhibition (%)” value under setting [3] is reported as 90%; the “Inhibition (%)” value under setting [4] is reported as 90%.
